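Following 48 hours of exposure in 96-well plates, responses at five concentrations were used to interpolate endpoints linearly. The concentration for 50% growth inhibition is given as GI50. TGI: concentration producing complete growth inhibition.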 Some results are limits rather than exact numbers.

Among the test systems are 786-0 renal; BT-549 breast; EKVX NSCLC; HCT-116 colon; K-562 leukemia; LOX IMVI melanoma; OVCAR-8 ovarian; SF-268 CNS; SK-MEL-2 melanoma; SNB-75 CNS.
What all share (test): NCI anticancer screen, dose series, 48 h

On to `C[C@H]1COCCN1c1nc(-c2cnc(N)cc2C(F)F)nc(N2CCOCC2)n1`, for which the GI50 in the test on 786-0 renal is 0.181 µM; with BT-549 breast it was 0.098 µM; in the test on EKVX NSCLC, 0.178 µM; with HCT-116 colon, 0.233 µM; in the test with K-562 leukemia, 0.692 µM; in the test on LOX IMVI melanoma it was 0.152 µM. In addition, the GI50 is 0.291 µM with OVCAR-8 ovarian, 0.265 µM in the test with SF-268 CNS, 0.232 µM with SK-MEL-2 melanoma and 0.0355 µM in the test with SNB-75 CNS. Also, the TGI in the test with 786-0 renal was 5.15 µM; in the test with BT-549 breast, 0.818 µM; in the test with EKVX NSCLC it was 2 µM; in the test on HCT-116 colon, > 100 µM; in the test with K-562 leukemia, > 100 µM; with LOX IMVI melanoma it was 4.44 µM. In addition, the TGI in the test on OVCAR-8 ovarian is > 100 µM; in the test on SF-268 CNS it was > 100 µM; in the test with SK-MEL-2 melanoma, 1.12 µM; with SNB-75 CNS, 0.354 µM.
As for `CC1=CC(C)(C)Nc2ccc(Cc3ccc4c(c3)C(C)=CC(C)(C)N4)cc21`, the GI50 in the test on 786-0 renal was 26 µM; with BT-549 breast, 28.4 µM; in the test on EKVX NSCLC, 5.67 µM; in the test with HCT-116 colon, 8.69 µM; in the test on K-562 leukemia it was 3.6 µM; in the test on LOX IMVI melanoma, 15.1 µM. The GI50 in the test on OVCAR-8 ovarian is 9.59 µM; with SF-268 CNS, 16.6 µM; with SK-MEL-2 melanoma it was 12.5 µM; in the test on SNB-75 CNS, 14.8 µM. The TGI in the test on 786-0 renal was > 100 µM; in the test with BT-549 breast it was > 100 µM; with EKVX NSCLC it was > 100 µM; with HCT-116 colon it was 43.9 µM; with K-562 leukemia, 51.8 µM; in the test on LOX IMVI melanoma, 82.2 µM. Moreover, the TGI was 56.8 µM in the test on OVCAR-8 ovarian, > 100 µM in the test on SF-268 CNS, 40.6 µM in the test with SK-MEL-2 melanoma and > 100 µM with SNB-75 CNS.
On to `Cc1ccnc2c(NC(C)CCCN)cc(O)c(O)c12` (stereo not given), for which the GI50 was 71.2 µM in the test with 786-0 renal; 36.1 µM in the test on BT-549 breast; 21.3 µM in the test with EKVX NSCLC; 13.8 µM with HCT-116 colon; 26.1 µM with K-562 leukemia; 9.69 µM in the test on LOX IMVI melanoma. Moreover, the GI50 was 6.62 µM in the test with OVCAR-8 ovarian, 21.2 µM in the test on SF-268 CNS, > 100 µM with SK-MEL-2 melanoma and 19 µM in the test with SNB-75 CNS. Further, the TGI in the test with 786-0 renal was > 100 µM; in the test on BT-549 breast, > 100 µM; in the test on EKVX NSCLC it was 61.8 µM; in the test with HCT-116 colon, > 100 µM; in the test with K-562 leukemia, > 100 µM; in the test with LOX IMVI melanoma it was 74.9 µM. Further, the TGI with OVCAR-8 ovarian is 82.6 µM; in the test with SF-268 CNS, 74.2 µM; in the test with SK-MEL-2 melanoma, > 100 µM; with SNB-75 CNS, 81.1 µM.
Take `C[C@@]1(C(=O)O)CCC[C@]2(C)C1CC[C@]13C[C@@](O)(CO)[C@](O)(CC[C@]12O)C3` (stereo not given in full): the GI50 in the test with 786-0 renal, in the test on BT-549 breast, in the test on EKVX NSCLC, with HCT-116 colon, with K-562 leukemia and with LOX IMVI melanoma was > 100 µM in each case. Also, the GI50 in the test with OVCAR-8 ovarian, in the test with SF-268 CNS, with SK-MEL-2 melanoma and in the test with SNB-75 CNS was > 100 µM throughout. The TGI with 786-0 renal, with BT-549 breast, with EKVX NSCLC, in the test with HCT-116 colon, with K-562 leukemia and with LOX IMVI melanoma was > 100 µM throughout. The TGI in the test on OVCAR-8 ovarian, in the test with SF-268 CNS, in the test on SK-MEL-2 melanoma and in the test with SNB-75 CNS was > 100 µM in each case.
For `CN(C)C(=S)/N=c1\ssc(=S)n1Cc1ccco1`, the TGI in the test with 786-0 renal was > 46.4 µM; in the test on BT-549 breast, 84.8 µM; in the test on EKVX NSCLC, > 100 µM; in the test on HCT-116 colon it was > 72 µM; in the test with K-562 leukemia, > 55.7 µM; in the test on LOX IMVI melanoma, > 100 µM. The TGI in the test with OVCAR-8 ovarian is > 100 µM; in the test on SF-268 CNS, > 100 µM; with SK-MEL-2 melanoma it was 30.3 µM; in the test on SNB-75 CNS, > 23.9 µM.
On to `Cc1cc(N(CCC#N)CCC#N)ccc1/C=C(\NC(=O)/C=C/c1ccccc1)C(=O)Nc1ccc(Cl)cc1`, for which the TGI in the test with 786-0 renal, in the test with BT-549 breast, with EKVX NSCLC, with HCT-116 colon, with K-562 leukemia and in the test on LOX IMVI melanoma was > 100 µM in each case. Besides, the TGI in the test on OVCAR-8 ovarian, in the test on SF-268 CNS, in the test on SK-MEL-2 melanoma and in the test with SNB-75 CNS was > 100 µM throughout.
With `Cc1nn(Cc2ccccc2)cc1C(=O)Nc1sc2c(c1C(N)=O)CCC(=O)C2`, the GI50 in the test with 786-0 renal is 3.55 µM; with BT-549 breast, 2.56 µM; with EKVX NSCLC, 3.03 µM; in the test with HCT-116 colon it was 1.28 µM; with K-562 leukemia, 1.7 µM; with LOX IMVI melanoma it was 1.78 µM. The GI50 was 3.27 µM with OVCAR-8 ovarian, 3.12 µM with SF-268 CNS, 2.12 µM with SK-MEL-2 melanoma and 1.74 µM with SNB-75 CNS. Besides, the TGI in the test with 786-0 renal stood at 28.6 µM; in the test on BT-549 breast it was 7.82 µM; in the test with EKVX NSCLC it was 21.7 µM; in the test with HCT-116 colon, 4.33 µM; in the test with K-562 leukemia, 13.1 µM; with LOX IMVI melanoma, 3.79 µM. Moreover, the TGI was > 100 µM in the test with OVCAR-8 ovarian, 21.8 µM in the test on SF-268 CNS, 5.2 µM in the test on SK-MEL-2 melanoma and 6.81 µM in the test with SNB-75 CNS.
